From publication PMC6502800, “Visualizing the cellular route of entry of a cystine-knot peptide with Xfect transfection reagent by electron microscopy” (Scientific Reports, 2019) come the findings set out here.

The subject of series [1] is HeLa cells. In words: Uptake of cargo into cells pre-treated with Xfect.
Description: Cells were fixed with 4% PFA and processed as described in methods. […] Values were normalized to the 6 h Xfect treated samples. Mean ± SD. n = 1000 cells. Representative images from three independent experiments are shown. Scale bar, 20 µm.
(a–d) HeLa cells were incubated with Xfect for indicated times then washed with PBS for three times and incubated with 30 nM SYTOX Red (a,b, Cy5 channel) or 200 nM YOYO-3 Iodide (c,d, Texas Red channel) for 20 min, and washed with PBS again. Cells were fixed with 4% PFA and processed as described in methods. […] Values were normalized to the 24 h Xfect treated samples. Mean ± SD. n = 1000 cells. Representative images from three independent experiments are shown. Scale bar, 20 µm.
cells.HeLa cells were incubated with Xfect for the indicated times, then washed with PBS
forthree times and incubated with 30 nM SYTOX Red (a, Cy5 channel) or 200 nM YOYO-3
Iodide (b, Texas Red channel) for 20 min, and washed with PBS again. Cells were fixed with
4% PFA and processed as described in methods. Representative images from three
independent experiments are shown. Scale bar, 20 µm. Images are normalized to saturation
atthe 24 h time point in order to show the cellular distribution of early time point samples.
Series [2] relates to HeLa cells. In words: Detergent-based cell permeabilization assay. As for the experimental part: Figure 4 Internalized rEETI-II/Xfect is found in compartments that are resistant to detergent permeabilization. […] Cells were then incubated with PBS, 0.1% Triton X-100, 0.04% Saponin, 0.01% Saponin, or 25 μM Digitonin in PBS for 5 min at room temperature, washed and imaged. […] Mean ± SD. n = 1000 cells. Representative images from at least three independent experiments are shown. Scale bar, 20 μm.
For cell permeabilization experiments, HeLa cells were incubated with 5 μM rEETI-II-A488 with or without Xfect for 60 min, or transferrin (labeled with Alexa 555, 0.2 mg/ml) for 10 min, at 37 °C/5% CO2, washed three times with cold PBS. Cells were then fixed with 4% PFA for 20 min at room temperature, washed three times with PBS, and incubated with either PBS, or detergent containing PBS for 5 min at room temperature. Cells were washed again. […] Fluorescence images were captured on a high throughput ImageXpress Micro XL imaging system (Molecular Devices) and images were analyzed by MetaXpress 4.0. Fluorescence intensity values above a threshold defined using the DMSO-treated samples were measured and used to quantify integrated fluorescence intensity per cell or percentage of dye-positive cells. […] Cells were incubated with Hoechst 333421 (5 µg/ml in PBS) for 10 min and washed three times with PBS then imaged, analyzed as described above. […]

Take `C[n+]1c(C=CC=C2C=CN(CCC[N+](C)(C)CCC[N+](C)(C)CCCN3C=CC(=CC=Cc4oc5ccccc5[n+]4C)c4ccccc43)c3ccccc32)oc2ccccc21` [YOYO-3 Iodide]: in the series with HeLa cells [1] (HeLa cells pre-treated with Xfect 3 h, washed, then dye 20 min (SYTOX Red 30 nM; YOYO-3 Iodide 200 nM), fluorescence imaging), the “uptake of cell impermeable dye into cells pre-treated with Xfect” value was “observed to enter into cells”. For the same compound, the “uptake of dye into cells in the absence of Xfect preincubation” value in the series on HeLa cells [1] (HeLa cells, no Xfect, dye 20 min (SYTOX Red 30 nM; YOYO-3 Iodide 200 nM), negative control) is reported as “little to no uptake”.
For “transferrin-Alexa555: transferrin labeled with Alexa 555, marker of early and recycling endosomes”, the “internalized transferrin staining after detergent permeabilization” value in the series on HeLa cells [2] is “resistant to detergent extraction”.
